Test results from patent publication US20120077814A1, “SULFONAMIDE, SULFAMATE, AND SULFAMOTHIOATE DERIVATIVES” (priority 2010, published 2012).

Assays:
[1] = test system: HCT-116 cell proliferation; assay: Cell proliferation assay (HCT-116); assay type: cell-based; conditions: Homo sapiens; HCT-116 cells; read-out: Activity (range of inhibitory activity against HCT-116 cell proliferation, IC50)
Procedure: A panel of cancer cell lines is obtained from ATCC (Rockville, Md.). Cell cultures are maintained in Hyclone DMEM/F12 medium (Logan, Utah) supplemented with 10% fetal bovine serum and 15 mM HEPES buffer, final pH 7.2, at 37° C. with a 5% CO2 atmosphere. Cultures are maintained at sub-confluent densities.
For proliferation assays, cells are seeded into 96 well plates at 1,000-5,000 cells per well, depending on the cell line, and are incubated overnight. The following day, test compound, DMSO solution (negative control), or Actinomycin D (positive control) is added to the appropriate wells as 10× concentrated stocks prepared in phosphate buffered saline. The cell plates are then incubated for an additional 2-6 days, depending on the cell line, to allow proliferation to occur. To measure cell growth in adherent cultures, DNA amounts are measured in each well using the CyQuant DNA determination kit (Invitrogen, Carlsbad, Calif.) following the recommended protocol. Measurement of cell growth in suspension cultures is done by use of Celltiter Reagent (Promega, Madison, Wis.) at the end of treatment, following the recommended protocol. The percentage of cell growth is determined by comparing the cell growth in the presence of test compounds to the cells treated with DMSO vehicle (control, 100% growth) and cells treated with Actinomycin D ([…], 0% growth). […]

[2] = target: T1, recombinant human NAE enzyme (NEDD8 Activating Enzyme) (Homo sapiens, UniProt Q8TBC4); assay: E1-activating enzyme assay, time-resolved fluorescence energy transfer (NAE); assay type: biochemical; conditions: 0.5 nM recombinant human NAE, 100 μM ATP; read-out: Activity (range of inhibitory activity on NAE, IC50)
T1 sequence (Q8TBC4 1-463): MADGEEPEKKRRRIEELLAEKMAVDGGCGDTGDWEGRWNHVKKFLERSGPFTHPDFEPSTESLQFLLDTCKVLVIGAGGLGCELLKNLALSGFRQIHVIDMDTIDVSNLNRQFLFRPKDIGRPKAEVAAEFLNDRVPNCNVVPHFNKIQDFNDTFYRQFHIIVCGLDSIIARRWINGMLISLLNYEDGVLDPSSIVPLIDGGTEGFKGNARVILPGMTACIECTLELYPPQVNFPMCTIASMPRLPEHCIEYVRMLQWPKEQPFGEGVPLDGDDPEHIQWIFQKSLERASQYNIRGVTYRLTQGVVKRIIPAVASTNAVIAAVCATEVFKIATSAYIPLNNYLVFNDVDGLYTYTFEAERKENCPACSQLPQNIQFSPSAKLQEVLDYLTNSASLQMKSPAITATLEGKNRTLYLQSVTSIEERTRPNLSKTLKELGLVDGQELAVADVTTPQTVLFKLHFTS
T1 sequence (Q13564 1-534 partner): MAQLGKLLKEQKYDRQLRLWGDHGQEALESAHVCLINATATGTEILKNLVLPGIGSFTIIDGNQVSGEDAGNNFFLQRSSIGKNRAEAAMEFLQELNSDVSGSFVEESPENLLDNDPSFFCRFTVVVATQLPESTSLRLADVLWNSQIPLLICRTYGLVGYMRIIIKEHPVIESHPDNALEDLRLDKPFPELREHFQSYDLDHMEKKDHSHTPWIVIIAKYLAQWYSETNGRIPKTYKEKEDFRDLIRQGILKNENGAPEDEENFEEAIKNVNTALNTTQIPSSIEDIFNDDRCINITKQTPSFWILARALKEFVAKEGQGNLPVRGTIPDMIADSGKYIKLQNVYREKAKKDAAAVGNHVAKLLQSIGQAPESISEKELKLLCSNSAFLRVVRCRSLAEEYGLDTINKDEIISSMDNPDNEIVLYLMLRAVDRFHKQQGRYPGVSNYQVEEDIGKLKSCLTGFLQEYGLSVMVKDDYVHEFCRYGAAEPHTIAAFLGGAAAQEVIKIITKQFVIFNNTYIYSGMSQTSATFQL
Procedure: A time-resolved fluorescence energy transfer assay format is used to measure the in vitro activity of NEDD8 Activating Enzyme (NAE). The enzymatic reaction is performed in a total volume of 50 μL, containing 50 mM HEPES, pH 7.5, 0.05% BSA, 5 mM MgCl2, 100 μM ATP, 10 nM Ubc12-GST, 75 nM NEDD8-Flag and 0.5 nM recombinant human NAE enzyme. The reaction mixture is incubated with and without compound inhibitor at 24° C. for 30 min in a 96 half-well plate. The reaction is then terminated with 25 μL of stop/detection buffer (0.1 M HEPES, pH 7.5, 0.05% Tween20, 20 mM EDTA, 410 mM KF, 81.8 ng/mL Europium-Cryptate-labelled monoclonal Flag-M2-specific antibody (CisBio International) and 8.125 μg/mL PHYCOLINK allophycocyanin (XL-APC)-labelled GST-specific antibody (Prozyme)). After incubation for 2 hours at 24° C., the plate is read on a Tecan Infinite M1000 instrument using a time-resolved fluorescence method. A similar assay protocol is used to measure other E1 enzymes. For the Sumo Activating Enzyme (SAE) assay everything is conducted as described for NAE except that Ubc12-GST and NEDD8-Flag are replaced with 10 nM Ubc9-GST and 125 nM Sumo-Flag respectively, and recombinant human SAE (0.6 nM) replaced NAE. The Ubiquitin Activating Enzyme (UAE) assay is performed as described for NAE except Ubc12-GST, NEDD8-Flag, and NAE are replaced with 5 nM Ubc2-GST, 125 nM UBB-Flag, and 1.5 nM UAE respectively.
Compounds of the disclosure are inhibitors of NAE. Several exemplary compounds useful in the methods of the disclosure are listed below.

SMILES | IC50 [1] [µM] | IC50 [2] [µM]
NS(=O)(=O)OC[C@H]1O[C@@H](c2coc3c(NCc4ccc(Cl)cc4Cl)ncnc23)[C@H](O)[C@@H]1O [Compound 34, (5-(4-(2,4-dichlorobenzylamino)furo[3,2-d]pyrimidin-7-yl)-3,4-dihydroxytetrahydrofuran-2-yl)methyl sulfamate] | 5 to 50 | –
NS(=O)(=O)OC[C@H]1C[C@H](c2ccc3c(N[C@H]4CCc5ccccc54)ncnn23)C[C@@H]1OS(N)(=O)=O [Compound 19, [2-[(aminosulfonyl)oxy]-4-{4-[2,3-dihydro-1H-inden-1-ylamino]pyrrolo[2,1-f][1,2,4]triazin-7-yl}cyclopentyl]methyl sulfamate] | 5 to 50 | 5 to 50
NS(=O)(=O)OC[C@H]1O[C@@H](c2csc3c(NCC4CC4)ncnc23)[C@H](O)[C@@H]1O [Compound 26, (5-(4-(cyclopropylmethylamino)thieno[3,2-d]pyrimidin-7-yl)-3,4-dihydroxytetrahydrofuran-2-yl)methyl sulfamate] | 5 to 50 | –
Nc1ncnc2c([C@@H]3O[C@H](COS(N)(=O)=O)[C@@H](O)[C@H]3O)cnn12 [Compound 13, ((2R,3S,4R,5S)-5-(4-aminopyrazolo[1,5-a][1,3,5]triazin-8-yl)-3,4-dihydroxytetrahydrofuran-2-yl)methyl sulfamate] | 5 to 50 | –
Nc1ncnc2c([C@@H]3O[C@H](COS(N)(=O)=O)[C@@H](O)[C@H]3O)[nH]nc12 [Compound 3, [(2R,3S,4R,5S)-5-(7-amino-1H-pyrazolo[4,3-d]pyrimidin-3-yl)-3,4-dihydroxy-tetrahydrofuran-2-yl]methyl sulfamate] | 0.5 to 5 | 0.5 to 5
NS(=O)(=O)OC[C@H]1O[C@@H](c2ccc3c(N[C@H]4CCc5ccccc54)ncnn23)CC1=O [Compound 1, [(2R,5R)-5-[4-[[(1S)-indan-1-yl]amino]pyrrolo[2,1-f][1,2,4]triazin-7-yl]-3-oxo-tetrahydrofuran-2-yl]methyl sulfamate] | 5 to 50 | 5 to 50
NS(=O)(=O)OC[C@H]1O[C@@H](c2coc3c(NCc4ccc(Cl)c(C(F)(F)F)c4)ncnc23)[C@H](O)[C@@H]1O [Compound 35, (5-(4-(4-chloro-3-(trifluoromethyl)benzylamino)furo[3,2-d]pyrimidin-7-yl)-3,4-dihydroxytetrahydrofuran-2-yl)methyl sulfamate] | – | 0.5 to 5
NS(=O)(=O)OC[C@H]1O[C@@H](c2csc3c(NCc4ccccc4Cl)ncnc23)[C@H](O)[C@@H]1O [Compound 30, (5-(4-(2-chlorobenzylamino)thieno[3,2-d]pyrimidin-7-yl)-3,4-dihydroxytetrahydrofuran-2-yl)methyl sulfamate] | – | 0.5 to 5
COCCNc1ncnc2c([C@@H]3O[C@H](COS(N)(=O)=O)[C@@H](O)[C@H]3O)csc12 [Compound 28, (3,4-dihydroxy-5-(4-(2-methoxyethylamino)thieno[3,2-d]pyrimidin-7-yl)tetrahydrofuran-2-yl)methyl sulfamate] | 5 to 50 | –
NS(=O)(=O)OC[C@H]1O[C@@H](c2csc3c(NCc4cccc(Cl)c4)ncnc23)[C@H](O)[C@@H]1O [Compound 37, (5-(4-(3-chlorobenzylamino)thieno[3,2-d]pyrimidin-7-yl)-3,4-dihydroxytetrahydrofuran-2-yl)methyl sulfamate] | – | 0.5 to 5

Results, then the molecule that gave them:

IC50 [1] [µM] | IC50 [2] [µM] | SMILES
0.5 to 5 | < 0.5 | NS(=O)(=O)OC[C@H]1O[C@@H](c2csc3c(NCc4ccc(Cl)cc4)ncnc23)[C@H](O)[C@@H]1O [Compound 6, ((2R,3S,4R,5S)-5-(4-(4-chlorobenzylamino)thieno[3,2-d]pyrimidin-7-yl)-3,4-dihydroxytetrahydrofuran-2-yl)methyl sulfamate]
< 0.5 | 0.5 to 5 | Nc1ncnc2c([C@@H]3O[C@H](COS(N)(=O)=O)[C@@H](O)[C@H]3O)coc12 [Compound 11, ((2R,3S,4R,5S)-5-(4-aminofuro[3,2-d]pyrimidin-7-yl)-3,4-dihydroxytetrahydrofuran-2-yl)methyl sulfamate]
0.5 to 5 | – | NS(=O)(=O)OC[C@H]1O[C@@H](c2csc3c(NCc4ccccc4)ncnc23)[C@H](O)[C@@H]1O [Compound 25, (5-(4-(benzylamino)thieno[3,2-d]pyrimidin-7-yl)-3,4-dihydroxytetrahydrofuran-2-yl)methyl sulfamate]
< 0.5 | < 0.5 | Nc1ncnc2c([C@@H]3O[C@H](COS(N)(=O)=O)[C@@H](O)[C@H]3O)csc12 [Compound 4, [(2R,3S,4R,5S)-5-(4-aminothieno[3,2-d]pyrimidin-7-yl)-3,4-dihydroxy-tetrahydrofuran-2-yl]methyl sulfamate]
0.5 to 5 | 0.5 to 5 | NS(=O)(=O)OC[C@H]1O[C@@H](c2csc3c(N[C@H]4CCc5ccccc54)ncnc23)C[C@@H]1O [Compound 10, ((2R,3S,5R)-5-(4-((S)-2,3-dihydro-1H-inden-1-ylamino)thieno[3,2-d]pyrimidin-7-yl)-3-hydroxytetrahydrofuran-2-yl)methyl sulfamate]
